Laboratory results reported in patent publication US12364695B2, “Methods of treating inflammatory disease” (INTRA-CELLULAR THERAPIES, INC., priority 2020, dated 2025).

Columns and labels:
[1] = system: Docosahexaenoic Acid Metabolites; assay: Detection of docosahexaenoic acid metabolites, mouse zymosan pleurisy model; type: in vivo; settings: compared with controls
Protocol: (§1) Zymosan was injected into the pleural cavities of mice in order to induce sterile inflammation by the methods discussed in Example 1. Compound 1 was administered to test subjects to observe the effects on a variety of inflammatory biomarkers. Results were recorded after 4 hours. […] IFNγ, IL-1β, MCP1-β and TNF-α decreased following administration of Compound 1 in all serum and plasma samples.
(§2) Lipids are known to be involved in regulation of a multitude of cellular responses including cell growth and death, and inflammation/infection, via receptor-mediated pathways. Various lipids are involved in both the initiation and resolution of inflammation. Pro-resolving lipid mediators are produced naturally in the body from unsaturated fatty acids, such as arachidonic acid (AA) and docosahexaenoic acid (DHA). Further studies were carried out to identify metabolites of AA and DHA, which are summarized below in Tables 2 and 3.
(§3) As shown above in relation to AA metabolism, 12-HETE and 15-HETE, both intermediate mediators leading to resolution of inflammation, show increased occurrence compared with controls, while pro-inflammatory mediators TXB2, PGE2 and LTB4 all decrease. For the metabolism of DHA, each of 17-HDOHE, RVD5 and 14-HDOHE increase, all of which are related to resolution of inflammation.

[2] = system: cytokine markers (IFNγ, IL-1β, MCP1-β, TNF-α, IL10); assay: Inflammatory biomarkers in mouse zymosan pleurisy model; type: in vivo; settings: after 4 hours
Protocol: as §1

MCP-1/CCL2 = assay: Cytokine production in plasma following zymosan sterile insult (FIG. 7); type: in vivo, mouse; settings: at 3 and 7 days, in comparison with control groups
Protocol: FIG. 7 depicts cytokine production in plasma in test subjects following sterile insult when treated with Compound 1.
(§4) Zymosan is injected into the pleural cavities of mice in order to induce sterile inflammation. Infiltration of leukocytes, neutrophils, and macrophages are monitored at days 3 and 7 following injection. Detection of various cell types are identified according to the gating strategy outlined in Table 1 below.

BV2 cells = assay: Microglia chemotaxis assay (Transwell, ADP); type: cell-based; settings: 100 μM ADP, 4 hours, FIG. 10
Protocol: BV2 cells were added to upper chamber of a 5 μm pore Transwell 96-well plate over a reservoir containing 100 μM ADP and incubated at 37° C. with 5% CO2 for 4 hours. After the incubation cells were harvested with pre-warmed cell detachment solution for 30 minutes in the same incubation conditions. 75 μl of this cell detachment solution was combined with 75 μl of culture medium in a new 96 well plate compatible with a fluorescence reader. Cell number in bottom chamber was determined by adding CyQuant® GR dye and reading in the Envision fluorescence reader at 480 nm EX/520 nm EM.

[3] = system: leukocytes, neutrophils, and macrophages (M1/M2) at the site of inflammation; assay: Mouse zymosan model of sterile inflammation, flow cytometry of infiltrating cells; type: in vivo; settings: for inflammatory resolution (shift from M1 to M2 macrophages): zymosan injection, FIGS. 1-9
Protocol: as §4
In this model, injection of zymosan causes the recruitment of various waves of leukocytes, which are observed and recorded. Exudate volume increases to a maximum over a period of 24 hours, and neutrophils increase within 4 hours and reach a maximum by 48 hours. Lymphocytes of the adaptive immune system enter at a later stage, after three days, which is signaled by macrophages presenting antigens. A resolution phase is well documented in this model and is accompanied by decreased total macrophage number and transition into M2 phenotype.
In the studies, Compounds 1 and 2 were administered to the test subjects, and the effect the compounds had on infiltration of leukocytes, neutrophils, and macrophages was observed.
Similar tests were conducted with Compound 2, the results of which are illustrated in FIGS. 8 and 9. […] An additional test was carried out according to the same method. Mice were injected intraperitoneally with 1 mg Zymosan followed by 10 mg/kg Compound 1. Macrophage levels were recorded at injection, then at 4, 8, 16, 24, 48 and 72 hours post-injection.

[4] = system: Arachidonic Acid Metabolites; assay: Detection of arachidonic acid metabolites, mouse zymosan pleurisy model; type: in vivo; settings: compared with controls
Protocol: as §1, §2, §3

CN1C(=O)c2c(nn(Cc3ccc(-c4cccc(F)n4)cc3)c2Nc2ccccc2)N2C1=N[C@@H]1CCC[C@@H]12 [Compound 1]
14-HDOHE (resolution mediator) [1]: Increase
17-HDOHE (intermediate mediator linked to resolution) [1]: Increase
RVD5 (intermediate mediator linked to resolution) [1]: Increase
IFNγ ([2]; serum and plasma): decreased
IL-1β ([2]; serum and plasma): decreased
MCP1-β ([2]; serum and plasma): decreased
TNF-α ([2]; serum and plasma): decreased
IL10 ([2]; serum): decrease
inflammatory biomarkers (MCP-1/CCL2) in plasma (MCP-1/CCL2): less inflammatory biomarkers
motility of BV2 cells across the membrane (BV2 cells): marked dampening effect
M1 macrophage levels (CD80+, iNOS+) ([3]; 1 mg Zymosan i.p. then 10 mg/kg, all observed times, FIGS. 11A and 11B): lower
Arg1+ M2 macrophages ([3]; 10 mg/kg, at 4 hours, FIG. 12A): increased
CD206+ M2 macrophages ([3]; 10 mg/kg, relative to control at 2 and 3 days, FIG. 12B): significantly increased
total numbers of CD38+ macrophages ([3]; day 3, FIG. 5A): decreased
number of Egr2+ macrophages ([3]; day 3, all animal groups, FIG. 5B): decreased
MFI for CD38+ on macrophages ([3]; day 3, increase in all groups, FIG. 6A): lowest value
MFI for CD38+ on macrophages ([3]; day 7, all groups): decreased
percentage of neutrophils relative to CD45+ leukocytes ([3]; day 7, all subjects, FIG. 3B): dropped significantly
number of neutrophils ([3]; day 7, compared with disease only and vehicle animals, FIG. 3A): less dramatic decrease
MFI for Egr2+ on macrophages ([3]; days 3 and 7, compared to naïve, all groups): decreased
Egr2+ cell number and percent ([3]; overall trend, day 7): tended to increase
number of CD38+ cells ([3]; overall trend, day 7): tended to decrease
inflammatory resolution (shift from M1 to M2 macrophages) [3]: enhanced inflammatory resolution
5-HETE (intermediate mediator linked to resolution) [4]: No change
12-HETE (intermediate mediator linked to resolution) [4]: Increase
15-HETE (intermediate mediator linked to resolution) [4]: Increase
LTB4 (pro-inflammatory mediator) [4]: No change
PGE2 (pro-inflammatory mediator) [4]: Decrease
TXB2 (pro-inflammatory mediator) [4]: Decrease

CN1C(=O)c2c(nn(Cc3ccc(-c4ccccn4)cc3)c2Nc2ccccc2)N2C1=N[C@@H]1CCC[C@@H]12 [Compound 2]
CD38+ macrophages ([3]; 3 mg/kg, day 7, FIG. 8): significant drop
Erg2+ macrophages ([3]; 3 mg/kg, day 7, FIG. 9): sharp and significant increase
inflammatory resolution (shift from M1 to M2 macrophages) [3]: enhanced inflammatory resolution
